According to patent publication US20070185115A1, “Novel ureido-and amido-pyrazolone derivatives” (Aston University, priority 2003, published 2007):
Read-outs that look alike come from different tables or passages of the source. Blank lines part the entries; values can stand above or below the molecule they belong to.

Legend:
CCKB receptor = biological target: T1, CCKB receptor (Cavia porcellus, UniProt H0VZC5); assay: 125I-CCK-8 receptor binding assay, CCKB (guinea pig cerebral cortex membranes)
T1 construct: Male guinea pig brain tissues were prepared according to the modified method described by Saita et al; from tissue; host or cells: guinea pig cerebral cortex membranes
T1 sequence (H0VZC5 1-426): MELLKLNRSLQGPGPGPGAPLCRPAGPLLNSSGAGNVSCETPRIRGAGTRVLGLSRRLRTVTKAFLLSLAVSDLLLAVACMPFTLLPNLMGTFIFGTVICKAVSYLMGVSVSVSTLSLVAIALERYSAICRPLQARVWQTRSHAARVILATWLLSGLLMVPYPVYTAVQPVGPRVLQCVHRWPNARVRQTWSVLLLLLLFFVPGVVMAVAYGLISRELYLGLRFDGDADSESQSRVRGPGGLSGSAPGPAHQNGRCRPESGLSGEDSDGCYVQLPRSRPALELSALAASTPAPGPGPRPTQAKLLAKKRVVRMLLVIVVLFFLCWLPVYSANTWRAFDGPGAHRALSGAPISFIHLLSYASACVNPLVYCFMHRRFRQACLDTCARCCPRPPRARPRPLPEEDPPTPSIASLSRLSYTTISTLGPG
Experimental: (§1) Pharmacological Methods—^[125]I-CCK-8 Receptor Binding Assay
(§2) CCKA and CCKB receptor binding assays were performed, by using guinea pig cerebral cortex (CCKB) or rat pancreas (CCKA). Male guinea pig brain tissues were prepared according to the modified method described by Saita et al, [(1994), Characterization of YM022: its CCKB/gastrin receptor binding profile and antagonism to CCK-8-induced Ca2+mobilization., Eur. J. PharmacoL,269, 249-254]. Pancreatic membranes were prepared in a similar way but by Charpentier et al, [(1988), Cyclic cholecystokinin analogues with high selectivity for central receptors., Proc Natl Acad Sci USA, 85, 1968-1972]. For the in vivo CCK binding assay tissues were homogenised in ice cold sucrose (0.32 M, 25 ml) for 15 strokes at 500 rpm and centrifuged at 13000 rpm for 10 mins. The supernatant was re-centrifuged at 13000 rpm for 20 mins. The resulting pellet was re-dispersed to the required volume of buffer at 500 rpm and stored in aliquots at […].
(§3) Binding was achieved using a.radioligand ^125I-Bolton-Hunter labeled CCK, NEN at 25 pM. The samples were incubated {with membranes (0.1 mg/ml)} in 20 mM Hepes, 1 mM EGTA, 5 mM MgCl2, 150 mm NaCl, 0.25 mg/ml bacitracin at pH 6.5 for 2 hrs at RT and then […] by centrifugation at 1100 rpm for 5 minutes. The membrane pellets were washed twice with water and the bound radioactivity was measured in a Packard Cobra Auto-gamma counter (B5005). All binding assays were carried out with L-365, 260 (Bock, M. G., et. al., Benzodiazepine gastrin and brain cholecystokinin receptor ligands. L-365,260, J. Med. Chem. 1989, 32, 14-24) as an internal non-specific standard. Controls (no compound) were also added. All samples were made in duplicate and repeated twice. All compounds were initially screened for percentage inhibition at 20 μm.

CCKA receptor = biological target: T2, CCKA receptor (Rattus norvegicus, UniProt P30551); assay: 125I-CCK-8 receptor binding assay, CCKA (rat pancreas membranes); conditions: for Ratio A/B: ratio of CCKB and CCKA IC50 values
T2 construct: Pancreatic membranes were prepared in a similar way but by Charpentier et al; from tissue; host or cells: rat pancreas membranes
T2 sequence (P30551 1-444): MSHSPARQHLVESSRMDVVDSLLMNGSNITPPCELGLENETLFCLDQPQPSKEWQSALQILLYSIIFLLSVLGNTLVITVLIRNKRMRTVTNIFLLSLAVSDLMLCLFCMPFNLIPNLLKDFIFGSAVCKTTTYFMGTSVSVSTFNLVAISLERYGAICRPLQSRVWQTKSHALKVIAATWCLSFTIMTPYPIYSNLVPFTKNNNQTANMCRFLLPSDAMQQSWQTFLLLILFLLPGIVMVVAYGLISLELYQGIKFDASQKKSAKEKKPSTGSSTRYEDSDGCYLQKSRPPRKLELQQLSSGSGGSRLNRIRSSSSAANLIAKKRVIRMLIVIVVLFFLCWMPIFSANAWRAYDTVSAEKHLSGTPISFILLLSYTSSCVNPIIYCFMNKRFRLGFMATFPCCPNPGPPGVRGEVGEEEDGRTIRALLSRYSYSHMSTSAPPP
Experimental: as §1, §2, §3

[1] = Table 1, phenyl pyrazolinone ureas, guinea pig cerebral cortex, 125I-Bolton-Hunter CCK 25 pM, read-out: IC50 CCKB
[2] = Table 3, diphenyl pyrazolyl ureas, guinea pig cerebral cortex, 125I-Bolton-Hunter CCK 25 pM, read-out: IC50 CCKB
[3] = Table 4, diphenyl pyrazolinone amides, rat pancreas, 125I-Bolton-Hunter CCK 25 pM, read-out: IC50 CCKA
[4] = Table 4, diphenyl pyrazolinone amides, guinea pig cerebral cortex, 125I-Bolton-Hunter CCK 25 pM, read-out: IC50 CCKB
[5] = Table 2, phenylpyrazolinone amides, rat pancreas, 125I-Bolton-Hunter CCK 25 pM, read-out: IC50 CCKA
[6] = Table 2, phenylpyrazolinone amides, guinea pig cerebral cortex, 125I-Bolton-Hunter CCK 25 pM, read-out: IC50 CCKB
[7] = Table 3, diphenyl pyrazolyl ureas, rat pancreas, 125I-Bolton-Hunter CCK 25 pM, read-out: IC50 CCKA

Compound: Cc1ccc(NC(=O)Nc2c(C)n(C)n(-c3ccccc3)c2=O)cc1 [Example 9]
IC50 (CCKB receptor; [1]): > 20000 nM

Compound: Cc1c(NC(=O)Nc2ccc(Br)cc2)c(=O)n(-c2ccccc2)n1-c1ccccc1 [Example 24, N-(4-Bromophenyl)-N′-(5-methyl-3-oxo-1,2-diphenyk-2,3-dihydro-1H-pyrazol-4-yl)urea]
IC50 (CCKB receptor; [2]): > 20000 nM

Compound: COc1ccc(NC(=O)Nc2c(C)n(-c3ccccc3)n(-c3ccccc3)c2=O)cc1 [Example 29]
IC50 (CCKB receptor; [2]): > 20000 nM

Compound: Cc1c(NC(=O)NC2CCCCC2)c(=O)n(-c2ccccc2)n1C [Example 14]
IC50 (CCKB receptor; [1]): > 10000 nM

Compound: Cc1ccc(NC(=O)Nc2c(C)n(-c3ccccc3)n(-c3ccccc3)c2=O)cc1 [Example 31]
IC50 (CCKB receptor; [2]): > 20000 nM

Compound: COc1ccc(NC(=O)Nc2c(C)n(C)n(-c3ccccc3)c2=O)cc1 [Example 6]
IC50 (CCKB receptor; [1]): > 10000 nM

Compound: Cc1c(NC(=O)c2c[nH]c3ccccc23)c(=O)n(-c2ccccc2)n1-c1ccccc1 [Example 37, N-(5-Methyl-3-oxo-1,2-diphenyl-2,3-dihydro-1H-pyrazol-4yl)-1H-indole-3-carboxamide]
IC50 (CCKA receptor; [3]): 2000 nM
Ratio A/B (CCKA receptor; Table 4): 1.8
IC50 (CCKB receptor; [4]): 3500 nM

Compound: Cc1c(NC(=O)CCc2c[nH]c3ccccc23)c(=O)n(-c2ccccc2)n1-c1ccccc1 [Example 39, N-(5-Methyl-3-oxo-1,2-diphenyl-2,3-dihydro-1H-pyrazol-4-yl)-3-(1H-indol-3-yl)propanamide]
IC50 (CCKA receptor; [3]): 25 nM
Ratio A/B (CCKA receptor; Table 4): 80
IC50 (CCKB receptor; [4]): 2000 nM

Compound: Cc1c(NC(=O)c2c[nH]c3ccccc23)c(=O)n(-c2ccccc2)n1C [Example 18]
IC50 (CCKA receptor): 2000 nM
IC50 (CCKB receptor): 15000 nM

Compound: Cc1c(NC(=O)Cc2c[nH]c3ccccc23)c(=O)n(-c2ccccc2)n1C [Example 19]
IC50 (CCKA receptor; [5]): 2000 nM
IC50 (CCKB receptor; [6]): 9000 nM

Compound: Cc1c(NC(=O)Nc2ccc(Cl)cc2)c(=O)n(-c2ccccc2)n1C [Example 3, N-(4-chlorophenyl)-N′-(1,5-dihiethyl-3-oxo-2-phenyl-2,3-dihydro-1H-pyrazol-4-yl)urea]
IC50 (CCKB receptor; [1]): 2500 nM

Compound: Cc1cccc(NC(=O)Nc2c(C)n(-c3ccccc3)n(-c3ccccc3)c2=O)c1 [Example 22, N-(5-Methyl-3-oxo-1,2-diphenyl-2,3-dihydro-1H-pyrazol4-yl)N′-3-methylphenylurea]
IC50 (CCKA receptor; [7]): 20 nM
IC50 (CCKB receptor; [2]): 25 nM

Compound: Cc1c(NC(=O)CCc2c[nH]c3ccccc23)c(=O)n(-c2ccccc2)n1C [Example 17, N-(1,5-Dimethyl-3-oxo-2-phenyl-2 3dihydro-1H-pyrazol-4yl)-3-(1H-indol-3-yl)propanamide]
IC50 (CCKA receptor; [5]): 1000 nM
Ratio A/B (CCKA receptor; Table 2): 4
IC50 (CCKB receptor; [6]): 4000 nM

Compound: Cc1c(NC(=O)Nc2ccccc2[N+](=O)[O-])c(=O)n(-c2ccccc2)n1-c1ccccc1 [Example 25, N-(5-Methyl-3-oxo-1,2-diphenyl-2,3-dihydro-1H-pyrazol-4yl)N′-2-nitrophenylurea]
IC50 (CCKB receptor; [2]): 7500 nM

Compound: Cc1c(NC(=O)Nc2cccc3ccccc23)c(=O)n(-c2ccccc2)n1-c1ccccc1 [Example 34]
IC50 (CCKB receptor; [2]): > 20000 nM

Now from value to molecule:

IC50 (CCKB receptor; [1]): 5000 nM
Compound: Cc1cccc(NC(=O)Nc2c(C)n(C)n(-c3ccccc3)c2=O)c1 [Example 8]

IC50 (CCKB receptor; [2]): > 20000 nM
Compound: Cc1ccccc1NC(=O)Nc1c(C)n(-c2ccccc2)n(-c2ccccc2)c1=O [Example 30]

IC50 (CCKB receptor; [2]): > 20000 nM
Compound: Cc1c(NC(=O)Nc2ccc(Cl)cc2)c(=O)n(-c2ccccc2)n1-c1ccccc1 [Example 32]

IC50 (CCKA receptor; [3]): 20 nM
Ratio A/B (CCKA receptor; Table 4): 1.5
IC50 (CCKB receptor; [4]): 30 nM
Compound: Cc1c(NC(=O)c2cc3ccccc3[nH]2)c(=O)n(-c2ccccc2)n1-c1ccccc1 [Example 36, N-(5-Methyl-3-oxo-1,2-diphenyl-2,3dihydro-1H-pyrazol-4yl)-1H-indole-2-carboxamide]

IC50 (CCKA receptor; [5]): 80 nM
Ratio A/B (CCKA receptor; Table 2): 11.3
IC50 (CCKB receptor; [6]): 900 nM
Compound: Cc1c(NC(=O)c2cc3ccccc3[nH]2)c(=O)n(-c2ccccc2)n1C [Example 16]

IC50 (CCKB receptor; [1]): > 10000 nM
Compound: Cc1c(NC(=O)Nc2cccc(Cl)c2)c(=O)n(-c2ccccc2)n1C [Example 10]

Ratio A/B (CCKA receptor; Table 4): 1
Compound: Cc1c(NC(=O)CCCc2c[nH]c3ccccc23)c(=O)n(-c2ccccc2)n1-c1ccccc1 [Example 40, N-(5Methyl-3-oxo-1,2-diphenyl-2,3-dihydro-1H-pyrazol-4yl)-4-(1H-indol-3-yl)butanamide]

IC50 (CCKB receptor; [1]): > 20000 nM
Compound: Cc1c(NC(=O)Nc2ccccc2[N+](=O)[O-])c(=O)n(-c2ccccc2)n1C [Example 12]

IC50 (CCKB receptor; [1]): 7000 nM
Compound: Cc1c(NC(=O)Nc2ccc(Br)cc2)c(=O)n(-c2ccccc2)n1C [Example 11]

IC50 (CCKA receptor; [3]): 20 nM
Ratio A/B (CCKA receptor; Table 4): 125
IC50 (CCKB receptor; [4]): 2500 nM
Compound: Cc1c(NC(=O)Cc2c[nH]c3ccccc23)c(=O)n(-c2ccccc2)n1-c1ccccc1 [Example 38]

IC50 (CCKB receptor; [2]): 3000 nM
Compound: Cc1c(NC(=O)Nc2ccccc2)c(=O)n(-c2ccccc2)n1-c1ccccc1 [Example 26, N-(5-Methyl-3oxo-1,2diphenyl-2,3-dihydro-1H-pyrazol4-yl)—N′-phenylurea]

IC50 (CCKB receptor; [2]): 1000 nM
Compound: Cc1c(NC(=O)NC(C)(C)C)c(=O)n(-c2ccccc2)n1-c1ccccc1 [Example 35]

IC50 (CCKB receptor; [2]): 850 nM
Compound: Cc1c(NC(=O)NC2CCCCC2)c(=O)n(-c2ccccc2)n1-c1ccccc1 [Example 27]

IC50 (CCKA receptor; [7]): 10 nM
IC50 (CCKB receptor; [2]): 35 nM
Compound: COc1cccc(NC(=O)Nc2c(C)n(-c3ccccc3)n(-c3ccccc3)c2=O)c1 [Example 21, N-(5-methyl-3-oxo-1,2-diphenyl-2,3-dihydro-1H-pyrazol-4-yl)N′-3-methoxyphenylurea]
